The text below walks through data of patent US20040038855A1 (priority 1999, published 2004).

As a reminder, the Kb is the equilibrium dissociation constant of an antagonist, usually derived from a functional assay. What is called Ki is the equilibrium dissociation constant of an inhibitor or competing ligand from its target.

The target in assay [1] is human MCH1 receptor (Homo sapiens, UniProt Q99705). Description: Intracellular calcium response to MCH in COS-7 cells transfected with MCH1 (fluo-3, FLIPR): antagonist potency. It is filed as cell-based. Further details: expressed in transfected cells; host or cells: COS-7. The settings on record: read-out: Kb (nM) hMCH1. The source says: MCH1 antagonist compounds were identified by their ability to inhibit the MCH-elicited response. […]. From the IC50 values, the antagonist potency (Kb)was derived using the Cheng-Prussof correction (Lazareno and Birdsall, 1993). […]
For orientation: Calcium assays in cells follow changes in intracellular calcium, usually with a dye or a luminescent sensor.

Assay [2] has as its target T1, rat 5HT2C receptor (Rattus norvegicus, UniProt P08909).
T1 construct: expressed in transfected cells
T1 sequence (P08909 33-460): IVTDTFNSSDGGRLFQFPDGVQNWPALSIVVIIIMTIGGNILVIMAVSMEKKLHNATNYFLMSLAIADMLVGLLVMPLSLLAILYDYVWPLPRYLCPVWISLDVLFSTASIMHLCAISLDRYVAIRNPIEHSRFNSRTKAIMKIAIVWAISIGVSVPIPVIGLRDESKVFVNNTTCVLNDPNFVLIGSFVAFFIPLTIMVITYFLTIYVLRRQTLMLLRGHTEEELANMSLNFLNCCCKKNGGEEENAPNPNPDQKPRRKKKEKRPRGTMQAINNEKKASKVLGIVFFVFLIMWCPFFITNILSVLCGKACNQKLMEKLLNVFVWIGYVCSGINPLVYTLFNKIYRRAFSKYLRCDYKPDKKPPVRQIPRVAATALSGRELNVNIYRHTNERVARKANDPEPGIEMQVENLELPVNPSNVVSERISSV
Description: Binding affinity at the rat 5HT2C receptor. The settings on record: Table 3a; read-out: r5HT2C Ki. The source says: (§1) The design of such compounds can be optimized by determining their binding affinity at the recombinant MCH1, NPY1, NPY2, Gal1, Gal2, Gal3, and 5HT2C receptors. The methods to obtain the cDNA of the receptor, express said receptors in heterologous systems, and carry out assays to determine binding affinity are described in the following publications: human NPY1 (Larhammar et al., 1992), human NPY5 (U.S. Pat. No. 5,602,024, the disclosure of which is hereby incorporated by reference in its entirety into this application), human Gall (Habert-Ortoli et al., 1994), human Gal2 (Smith et al., 1997), human Gal3 (Smith et al., 1998), and rat 5HT2C (Julius et al., 1988). Additionally, the compounds would optimally not bind at the following receptors due to possible side effects: human H1 histamine and human H2 histamine receptors; human alpha-1A adrenergic, human alpha-1D adrenergic, human alpha-2A adrenergic, human alpha-2B adrenergic, and human alpha-2C adrenergic receptors; human dopamine D1, D2, D3, D4, and D5 receptors; the β-adrenoceptor; and the human 5HT1A, human 5HT1B, human 5HT1D, human 5HT1E, human 5HT1F, human 5HT2A, rat 5HT2C, human 5HT4, human 5HT6, and human 5HT7 receptors.
Other 5HT Receptors: Other serotonin receptor binding assays were performed according to published methods: rat 5HT2C receptor (Julius et al., 1988); and 5HT6 (Monsma, et al., 1993). The binding assays using the 5HT4 receptor were performed according to the procedures described in U.S. Pat. No. 5,766,879, the disclosure of which is hereby incorporated by reference in its entirety into this application.

The target of assay [3] is T2, human GALR1 receptor (Homo sapiens, UniProt P47211).
T2 construct: expressed in transfected cells
T2 sequence (P47211 1-349): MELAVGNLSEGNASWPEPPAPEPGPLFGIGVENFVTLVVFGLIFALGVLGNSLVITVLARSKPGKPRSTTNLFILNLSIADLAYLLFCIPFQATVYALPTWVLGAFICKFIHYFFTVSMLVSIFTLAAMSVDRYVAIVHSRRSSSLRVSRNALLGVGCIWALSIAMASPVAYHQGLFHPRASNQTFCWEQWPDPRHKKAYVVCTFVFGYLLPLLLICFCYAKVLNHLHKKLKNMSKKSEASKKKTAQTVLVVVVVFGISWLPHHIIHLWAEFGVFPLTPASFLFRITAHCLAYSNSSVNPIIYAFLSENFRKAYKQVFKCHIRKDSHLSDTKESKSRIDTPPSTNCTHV
Description: Binding affinity at the human GALR1 receptor. The settings on record: Table 3a; read-out: hGALR1 Ki.
Description: as §1

The target of assay [4] is T3, human NPY5 receptor (Homo sapiens, UniProt Q15761).
T3 construct: expressed in transfected cells
T3 sequence (Q15761 1-445): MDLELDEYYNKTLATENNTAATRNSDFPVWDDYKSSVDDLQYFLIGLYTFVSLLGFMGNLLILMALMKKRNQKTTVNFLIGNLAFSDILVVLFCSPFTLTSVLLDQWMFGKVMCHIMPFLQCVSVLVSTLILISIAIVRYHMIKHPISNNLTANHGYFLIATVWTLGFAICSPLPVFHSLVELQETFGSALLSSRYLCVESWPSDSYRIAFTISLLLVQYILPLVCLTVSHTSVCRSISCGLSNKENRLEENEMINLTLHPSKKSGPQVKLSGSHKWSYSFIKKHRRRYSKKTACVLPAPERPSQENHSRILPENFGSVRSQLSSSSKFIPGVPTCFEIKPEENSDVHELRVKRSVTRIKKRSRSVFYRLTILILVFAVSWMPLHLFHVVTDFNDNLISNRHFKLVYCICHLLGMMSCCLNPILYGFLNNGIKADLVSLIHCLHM
The assay is described as follows: Binding affinity at the human NPY5 receptor. The settings on record: Table 3a; read-out: hNPY5 Ki.
Description: as §1

The target in assay [5] is T4, human GALR3 receptor (Homo sapiens, UniProt O60755).
T4 construct: expressed in transfected cells
T4 sequence (O60755 1-368): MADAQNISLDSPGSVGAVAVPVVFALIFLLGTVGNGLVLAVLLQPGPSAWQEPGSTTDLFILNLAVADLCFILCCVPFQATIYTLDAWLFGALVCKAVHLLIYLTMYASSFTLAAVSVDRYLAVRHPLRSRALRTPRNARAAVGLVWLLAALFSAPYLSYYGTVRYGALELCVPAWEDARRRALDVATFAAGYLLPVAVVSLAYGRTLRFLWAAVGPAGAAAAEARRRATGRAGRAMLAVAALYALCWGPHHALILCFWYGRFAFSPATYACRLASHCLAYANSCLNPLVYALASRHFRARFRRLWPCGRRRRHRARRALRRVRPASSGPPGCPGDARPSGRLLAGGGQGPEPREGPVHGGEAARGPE
The assay is described as follows: Binding affinity at the human GALR3 receptor. The settings on record: Table 3a; read-out: hGALR3 Ki.
Description: as §1

The target in assay [6] is T5, human GALR2 receptor (Homo sapiens, UniProt O43603).
T5 construct: expressed in transfected cells
T5 sequence (O43603 1-387): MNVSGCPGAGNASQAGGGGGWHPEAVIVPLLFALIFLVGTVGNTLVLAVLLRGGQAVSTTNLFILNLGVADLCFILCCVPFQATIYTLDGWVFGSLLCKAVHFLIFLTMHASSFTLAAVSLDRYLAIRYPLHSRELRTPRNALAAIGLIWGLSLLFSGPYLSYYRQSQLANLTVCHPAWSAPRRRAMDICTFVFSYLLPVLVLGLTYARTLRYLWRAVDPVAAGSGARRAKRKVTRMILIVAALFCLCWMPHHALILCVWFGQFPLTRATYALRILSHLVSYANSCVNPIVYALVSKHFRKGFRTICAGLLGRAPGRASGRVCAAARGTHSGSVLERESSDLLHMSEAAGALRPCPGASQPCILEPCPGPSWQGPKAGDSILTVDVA
The assay is described as follows: Binding affinity at the human GALR2 receptor. The settings on record: Table 3a; read-out: hGALR2 Ki.
Description: as §1

Assay [7] concerns the target T6, human NPY1 receptor (Homo sapiens, UniProt P25929).
T6 construct: expressed in transfected cells
T6 sequence (P25929 1-384): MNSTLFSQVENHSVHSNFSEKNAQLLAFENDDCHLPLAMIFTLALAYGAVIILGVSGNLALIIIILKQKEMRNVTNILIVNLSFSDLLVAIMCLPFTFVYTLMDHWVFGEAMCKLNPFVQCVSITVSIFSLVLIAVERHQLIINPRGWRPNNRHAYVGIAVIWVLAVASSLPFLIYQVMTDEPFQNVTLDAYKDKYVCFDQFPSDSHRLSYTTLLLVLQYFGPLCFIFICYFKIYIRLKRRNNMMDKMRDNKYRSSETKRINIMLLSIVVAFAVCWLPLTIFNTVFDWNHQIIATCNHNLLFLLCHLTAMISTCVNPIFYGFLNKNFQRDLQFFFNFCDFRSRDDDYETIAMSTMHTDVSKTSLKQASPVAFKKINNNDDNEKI
The assay is described as follows: Binding affinity at the human NPY1 receptor. The settings on record: Table 3a; read-out: hMPY1 Ki.
Description: as §1

In assay [8] the target is T7, rat MCH1 receptor (Rattus norvegicus, UniProt P97639).
T7 construct: expressed in transfected cells
Description: Binding affinity (Ki) at the rat MCH1 receptor.

In assay [9] the target is T8, human Dopamine D2 receptor (Homo sapiens, UniProt P14416).
T8 construct: purchased BioSignal, Inc. (Montreal, Canada)
The assay is described as follows: Binding affinity at the human dopamine D2 receptor. The settings on record: Table 3c; read-out: hD2 Ki. Put shortly: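 Cell membranes carrying the recombinant human dopamine D1 or D2 receptor served as the binding source. The adrenergic α2A and dopamine D5 measurements used receptor binding protocols.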

Assay [10] deals with T9, human Histamine H1 receptor (Homo sapiens, UniProt P35367).
T9 construct: expressed in transfected cells
Description: Binding affinity at the human histamine H1 receptor. The settings on record: Table 3c; read-out: hH1 Ki. A digest of the protocol: (§2)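 Receptor binding read-out throughout; membranes expressing human D1 or D2 receptor were used for those two targets.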

Assay [11] concerns the target T10, human Alpha-1a Adrenergic receptor (Homo sapiens, UniProt P35348).
T10 construct: expressed in transfected cells
T10 sequence (P35348 1-466): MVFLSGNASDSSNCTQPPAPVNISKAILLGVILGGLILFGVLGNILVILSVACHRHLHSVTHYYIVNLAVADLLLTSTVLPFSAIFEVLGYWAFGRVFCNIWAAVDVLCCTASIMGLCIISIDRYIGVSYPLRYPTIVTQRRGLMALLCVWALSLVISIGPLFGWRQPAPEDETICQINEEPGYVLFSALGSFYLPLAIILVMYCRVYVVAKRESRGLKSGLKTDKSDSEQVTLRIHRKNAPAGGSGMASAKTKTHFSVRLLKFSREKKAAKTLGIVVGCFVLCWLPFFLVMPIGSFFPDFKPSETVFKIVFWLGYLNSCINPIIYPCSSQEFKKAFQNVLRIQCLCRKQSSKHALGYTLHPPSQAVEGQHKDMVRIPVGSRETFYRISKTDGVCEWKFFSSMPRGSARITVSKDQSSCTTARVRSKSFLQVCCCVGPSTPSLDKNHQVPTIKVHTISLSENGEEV
Description: Binding affinity at the human alpha-1A adrenergic receptor. The settings on record: Table 3c; read-out: hAlpha-1a Ki. A digest of the protocol: as §2

Where two headings read alike, the source gives them in different places.

Sequence of human MCH1 receptor (Q99705 whole entry): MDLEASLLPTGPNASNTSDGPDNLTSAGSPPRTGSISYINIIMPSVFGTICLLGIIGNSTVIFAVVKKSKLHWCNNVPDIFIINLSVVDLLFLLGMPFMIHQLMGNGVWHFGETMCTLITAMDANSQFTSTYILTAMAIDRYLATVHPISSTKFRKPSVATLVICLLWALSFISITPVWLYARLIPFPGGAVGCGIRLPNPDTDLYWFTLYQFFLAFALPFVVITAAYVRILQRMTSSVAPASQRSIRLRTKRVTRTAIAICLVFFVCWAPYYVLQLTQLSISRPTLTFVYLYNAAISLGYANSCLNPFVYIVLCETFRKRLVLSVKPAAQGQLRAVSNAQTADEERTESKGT
T7 sequence (P97639 whole entry): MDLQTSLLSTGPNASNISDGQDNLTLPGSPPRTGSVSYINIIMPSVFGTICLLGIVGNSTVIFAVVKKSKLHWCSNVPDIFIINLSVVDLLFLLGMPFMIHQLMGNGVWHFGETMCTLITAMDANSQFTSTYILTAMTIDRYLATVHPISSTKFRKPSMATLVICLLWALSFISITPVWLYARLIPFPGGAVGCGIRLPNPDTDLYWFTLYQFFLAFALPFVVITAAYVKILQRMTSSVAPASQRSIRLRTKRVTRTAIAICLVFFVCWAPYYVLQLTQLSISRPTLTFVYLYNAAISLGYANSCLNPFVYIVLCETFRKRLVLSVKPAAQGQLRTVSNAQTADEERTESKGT
T9 sequence (P35367 whole entry): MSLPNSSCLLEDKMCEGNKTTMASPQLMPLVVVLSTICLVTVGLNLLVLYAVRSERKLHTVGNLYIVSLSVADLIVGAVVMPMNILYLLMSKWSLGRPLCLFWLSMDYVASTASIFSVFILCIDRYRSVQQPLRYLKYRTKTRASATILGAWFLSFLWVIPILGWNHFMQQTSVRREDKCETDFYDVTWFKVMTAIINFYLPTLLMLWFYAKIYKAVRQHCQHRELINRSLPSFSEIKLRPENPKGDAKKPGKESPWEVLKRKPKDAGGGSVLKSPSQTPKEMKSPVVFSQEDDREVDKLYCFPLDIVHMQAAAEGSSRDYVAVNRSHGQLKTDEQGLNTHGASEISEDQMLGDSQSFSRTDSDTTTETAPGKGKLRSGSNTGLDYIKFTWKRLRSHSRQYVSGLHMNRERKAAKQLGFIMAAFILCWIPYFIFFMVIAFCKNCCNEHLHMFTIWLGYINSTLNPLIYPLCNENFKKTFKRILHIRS
T8 sequence (P14416 whole entry): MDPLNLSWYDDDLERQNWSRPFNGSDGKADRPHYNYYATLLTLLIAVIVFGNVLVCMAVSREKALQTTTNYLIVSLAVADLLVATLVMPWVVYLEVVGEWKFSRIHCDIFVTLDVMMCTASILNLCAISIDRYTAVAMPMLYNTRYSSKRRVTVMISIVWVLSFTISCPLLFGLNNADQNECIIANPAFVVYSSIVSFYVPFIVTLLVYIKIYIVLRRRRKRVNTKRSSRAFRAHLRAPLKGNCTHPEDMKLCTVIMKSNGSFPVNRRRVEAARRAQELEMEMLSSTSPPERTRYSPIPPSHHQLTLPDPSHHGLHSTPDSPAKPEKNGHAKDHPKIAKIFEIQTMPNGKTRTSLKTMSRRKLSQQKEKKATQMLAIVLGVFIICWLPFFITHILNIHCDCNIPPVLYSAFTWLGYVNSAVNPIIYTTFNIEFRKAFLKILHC

As for `COC(=O)C1=C(C)NC(=O)N(C(=O)NCCCN2CCC3(CC2)C(=O)CCc2ccccc23)C1c1ccc(F)c(F)c1` (centres unmarked) [Example 24], the Kb in assay [1] came to 102 nM.
Consider `Cc1cc(O)cc(O)c1/C=N/c1ccc(-c2cn3ccccc3n2)cc1` [Example 27], for which the Ki in assay [2], in assay [3], in assay [4], in assay [5], in [6] and in [7] was above 50 µM each time.
For the compound `COCC1=C(C(=O)OC)C(c2ccc(F)c(F)c2)N(C(=O)NCCCN2CCC(C)(c3ccccc3)CC2)C(=O)N1` (single isomer, unassigned; (+)) [Example 36, (+)-1,2,3,6-TETRAHYDRO-5-METHOXYCARBONYL-4-METHOXYMETHYL-2-OXO-1-{N-[3-(4-METHYL-4-PHENYL PIPERIDINE-1-YL]PROPYL}-6-(3,4-DIFLUOROPHENYL) PYRIMIDINE], in assay [1], the Kb is 406 nM.
Consider `COCC1=C(C(=O)OC)C(c2ccc(F)c(F)c2)N(C(=O)NCCCN2CCC(c3cc(F)ccc3OC)CC2)C(=O)N1` (single isomer, unassigned; (+)) [Example 15], for which the Kb in [1] stood at 289 nM.
For `CCN1c2ccc(/C=C3\SC(=S)NC3=O)cc2C(C)=CC1(C)C` [Example 25], the Ki in [2] is 41 µM; in assay [3], above 50 µM; in [4], above 50 µM; in assay [5] it was above 50 µM; in assay [6], above 50 µM.
For the compound `O=C(CCCN1CCC(NC(=O)c2ccccc2)CC1)c1ccc(Cl)cc1` [Example 28, [3-(4-CHLOROBENZOYL)]PROPYL-4-BENZAMIDOPIPERIDINE], the Ki in assay [2] was 34.1 µM; in assay [3] it was above 50 µM; in assay [4], above 50 µM; in [5] it was above 50 µM; in assay [6] it was above 50 µM.
Consider `Fc1ccc(C(c2ccc(F)cc2)N2CCN(C/C=C/c3ccccc3)CC2)cc1` [Example 26, 1-[BIS(4-FLUOROPHENYL)METHYL]-4-(3-PHENYL-2-PROPENYL)PIPERAZINE], for which the Ki in assay [3], in [4], in [5], in assay [6] and in assay [7] was above 50 µM in each case.
`CN1CN(c2ccccc2)C2(CCN(CCCC(=O)c3ccc(F)cc3)CC2)C1=O` [Example 30, N-METHYL-8-[4-(4-FLUOROPHENYL)-4-OXOBUTYL]-1-PHENYL-1,3,8-TRI-[4.5]DECAN-4-ONE]: the Ki in assay [2] is 8.86 µM; in assay [3], above 50 µM; in [4], above 50 µM; in assay [5] it was above 50 µM; in assay [6], above 50 µM; in assay [7], above 50 µM.
Turning to `CC(C)C(=O)Nc1cccc(C2CCN(CC[C@H](Oc3ccc(C#N)cc3)c3ccccc3)CC2)c1` [Example 114, N-(3-{1-[(3S)-3-(4-cyanophenoxy)-3-phenylpropyl]-4-piperidinyl}phenyl)-2-methylpropanamide], the Ki was 2.01 nM in assay [8] (Examples 38-141, read-out: Ki (nM) rMCH1); 20.1 nM in [8] (Table 3c, read-out: rMCH1 Ki); 0.39 µM in assay [9]; 0.59 µM in assay [10]; 0.233 µM in assay [11].
